The test system of data set [1] is MDA-MB-231-BCRP clone 23 cells. Kind of data set: Resazurin reduction cytotoxicity assay. As to conditions: for Degree of resistance: IC50 in MDA-MB-231-BCRP divided by IC50 in MDA-MB-231-pcDNA; for IC50: MDA-MB-231/BCRP, 72 h.
From the text: (§2) Drug-sensitive and drug-resistant cancer cell lines of previously reported origin were used in this study. These included drug-sensitive CCRF-CEM leukemia cells and its multidrug-resistant P-glycoprotein-overexpressing subline CEM/ADR5000 cells [14–16], MDA-MB-231-pcDNA breast cancer cells and their resistant subline MDA-MB-231-BCRP clone 23 cells [17], HCT116 p53^+/+colon cancer cells and their knockout clone HCT116 p53^−/− cells, and U87.MG glioblastoma cells and their resistant subline U87.MGΔEGFR cells [18, 19]. Normal AML12 hepatocytes were used and compared with HepG2 hepatocarcinoma cells [18, 19].
(§3) The Infinite M2000 Pro™ plate reader (Tecan, Crailsheim, Germany) with excitation wavelength of 544 nm and an emission wavelength of 590 nm was used to read the fluorescence after 72 h incubation. IC50 values earlier defined [13] were calculated from a calibration curve by linear regression using Microsoft Excel [24]. The degree of resistance (D.R.) was determined as the IC50 value of the resistant cell line versus that of its sensitive congeners; meanwhile, the selectivity index (S.I.) was the IC50 value in normal AML12 hepatocytes versus that in HepG2 hepatocarcinoma.
For data set [2], the system named is U87.MGΔEGFR cells. Kind of data set: Resazurin reduction cytotoxicity assay. The class given is cell-based. As to conditions: for Degree of resistance: IC50 in U87MG.ΔEGFR divided by IC50 in U87MG; for IC50: U87MG.ΔEGFR, 72 h incubation.
From the text: as §2, §3
Data set [3] deals with CCRF-CEM leukemia cells. Kind of data set: Resazurin reduction cytotoxicity assay. It counts as cell-based. As to conditions: 72 h incubation.
Method: as §3
Data set [4] relates to HCT116 p53+/+ colon cancer cells. Briefly: Resazurin reduction cytotoxicity assay. The class given is cell-based.
For data set [5], the system named is CEM/ADR5000 cells (multidrug-resistant P-glycoprotein-overexpressing subline). Briefly: Resazurin reduction cytotoxicity assay. It counts as cell-based. As to conditions: for IC50: CEM/ADR5000, 72 h incubation; for Degree of resistance: IC50 in CEM/ADR5000 divided by IC50 in CCRF-CEM.
From the text: as §2, §3
For data set [6], the system named is MDA-MB-231-pcDNA breast cancer cells. Briefly: Resazurin reduction cytotoxicity assay. The class given is cell-based. As to conditions: 72 h incubation.
For data set [7], the system named is U87.MG glioblastoma cells. Kind of data set: Resazurin reduction cytotoxicity assay. The class given is cell-based. To be noted: Homo sapiens, U-87 MG; U87MG, 72 h incubation.
Data set [8] relates to HepG2 hepatocarcinoma cells. Kind of data set: Resazurin reduction cytotoxicity assay. It counts as cell-based. To be noted: Homo sapiens; HepG2, 72 h incubation.
Method: as §3
The test system of data set [9] is Normal AML12 hepatocytes. Kind of data set: Resazurin reduction cytotoxicity assay. It counts as cell-based. As to conditions: for Selectivity index: IC50 in normal AML12 hepatocytes divided by IC50 in HepG2; for IC50: Mus musculus, normal AML12 hepatocytes, 72 h incubation.
From the text: as §2, §3
Data set [10] has as its system HCT116 p53-/- cells. Briefly: Resazurin reduction cytotoxicity assay. The class given is cell-based. As to conditions: for IC50: Homo sapiens, HCT-116, HCT116(p53-/-), 72 h incubation; for Degree of resistance: IC50 in HCT116 (p53-/-) divided by IC50 in HCT116 (p53+/+).
From the text: as §2, §3
Data set [11] concerns HEK293 cells. Further details: method as in PMID 29867487, PMID 11734332. To be noted: lowest of the reported range, ref [34], [36]; cited from earlier work.
Data set [12] concerns CCRF-CEM cells. Briefly: Annexin V/PI staining, apoptosis by flow cytometry. To be noted: 24 h, 2 × IC50.
Method: The experimental conditions were similar to those earlier reported (24 h incubation; humidified 5% CO2 atmosphere; 37°C) [13]. The BD Accuri C6 Flow Cytometer was then used to analyze apoptosis using fluorescein isothiocyanate (FITC)-conjugated annexin V/PI assay kit (eBioscience™ Annexin V; Invitrogen, San Diego, USA) similarly as reported earlier [13, 22, 23]; early apoptosis for cells stained with only annexin V; late apoptosis or in a necrotic stage for cells stained with both annexin V and propidium iodide [13, 25, 26].
In data set [13] the test system is caspases 3/7. Kind of data set: Caspase-Glo 3/7 assay. The class given is cell-based. To be noted: CCRF-CEM, 6 h, optimal effects at 8.8 μM. As for the experimental part:
(§1) After 6 h treatment of CCRF-CEM cells with DCB and triterpenoid 1 for 6 h, caspases activities were evaluated with Caspase-Glo 3/7, 8, and 9 assay kits (Promega, Mannheim, Germany) similarly as previously reported.

Data set [14] concerns caspase 9. Briefly: Caspase-Glo 9 assay. It counts as cell-based. As to conditions: CCRF-CEM, 6 h, optimal effects at 8.8 μM. Here is the method:
as §1

The test system of data set [15] is CEM/ADR5000 leukemia cells. Details: method as in PMID 29867487. To be noted: CEM/ADR5000 compared to CCRF-CEM; ref [34]; cited from earlier work.
For data set [16], the system named is CCRF-CEM cells. Kind of data set: ROS production, H2DCFH-DA. As to conditions: 24 h, 2 × IC50 (11.38 μg/mL crude extract; 17.60 μM compound 1). It counts as cell-based. As for the experimental part: The measurement of ROS production using 2′,7′-dichlorodihydrofluorescein diacetate (H2DCFH-DA) (Sigma-Aldrich) was done in CCRF-CEM cells were treated with DCB, compound 1, a solvent control (DMSO), or a positive control, hydrogen peroxide (H2O2) for 24 h, in similar experimental conditions as documented earlier.

Data set [17] has as its system caspase 8. Kind of data set: Caspase-Glo 8 assay. As to conditions: CCRF-CEM, 6 h, optimal effects at 8.8 μM. It counts as cell-based. As for the experimental part:
as §1

Data set [18] concerns CCRF-CEM cells. Details: method as in PMID 29867487, PMID 11734332. As to conditions: highest of the reported range, ref [34], [36]; cited from earlier work.
Data set [19] relates to normal PBL peripheral blood lymphoblast. Details: method as in PMID 11734332. As to conditions: ref [36]; cited from earlier work.
In data set [20] the test system is CCRF-CEM cells. Briefly: Mitochondrial membrane potential (MMP), JC-1 staining. It counts as cell-based. As to conditions: 24 h. Here is the method:
The mitochondrial membrane potential (MMP) of CCRF-CEM cells was analyzed after 24 h treatment with DCB, compound 1, or valinomycin (mitochondrial gradient dissipation substance or positive control). The 5,5′,6,6′-tetrachloro-1,1′,3,3′-tetraethylbenzimidazolyl carbocyanine iodide (JC-1; Biomol, Hamburg, Germany) staining was used to measure the MMP similarly as previously reported.

Data set [21] deals with CCRF-CEM cells. Kind of data set: Cell cycle analysis by flow cytometry (PI). To be noted: 24 h. The class given is cell-based. As for the experimental part:
Aliquots of 1×10^6 CCRF-CEM cells were treated with the studied samples (DCB and compound 1), the reference drug (doxorubicin), or the solvent control (DMSO) at various concentrations. […] The BD Accuri C6 Flow Cytometer (BD Biosciences, Heidelberg, Germany) was used to measure the propidium iodide (PI) fluorescence of individual nuclei. Assays were repeated at least three times and in triplicate.

Data set [22] deals with 9 tested cancer cell lines. Kind of data set: Resazurin reduction cytotoxicity assay, whole panel. As to conditions: for IC50: all tested cancer cell lines, 72 h incubation, read-out: IC50 values over the tested cancer cell lines. The class given is cell-based.
From the text: These included drug-sensitive CCRF-CEM leukemia cells and its multidrug-resistant P-glycoprotein-overexpressing subline CEM/ADR5000 cells [14–16], MDA-MB-231-pcDNA breast cancer cells and their resistant subline MDA-MB-231-BCRP clone 23 cells [17], HCT116 p53^+/+colon cancer cells and their knockout clone HCT116 p53^−/− cells, and U87.MG glioblastoma cells and their resistant subline U87.MGΔEGFR cells [18, 19]. Normal AML12 hepatocytes were used and compared with HepG2 hepatocarcinoma cells [18, 19].
as §3
The mark [23] stands for this setting: Homo sapiens, HCT-116, 72 h, 72 h incubation.

The structures appear in SMILES notation. Like-named read-outs stand apart in the source and are kept apart here. Bounds are passed on as bounds.

As for `O=c1cc(-c2ccc(O)cc2)oc2ccc(O)cc12` [Compound 4, 6-hydroxy-2-(4-hydroxyphenyl)-4H-chromen-4-one], the Degree of resistance in data set [1] is reported as 0.88; in data set [2], 1.02; in [5], 2.05; in data set [10], 1.00. Further, the IC50 in data set [1] was 40.5 ± 3.9 µM; in data set [2], 44.6 ± 2.56 µM; in data set [3] (Homo sapiens), 18.9 ± 1.54 µM; in data set [4] (72 h incubation), 48.9 ± 5.35 µM; in data set [4] (setting [23]), 88.9 µM; in [5] (Homo sapiens), 38.8 ± 2.13 µM. The IC50 was 45.8 ± 4.76 µM in data set [6]; 43.9 ± 8.19 µM in data set [7]; 34 ± 2.95 µM in [8]; 53.9 ± 11.2 µM in [9]; 48.6 ± 3.82 µM in [10]. The same compound returned a Selectivity index in data set [9] of 1.59.

Regarding `C=C(C)[C@@H]1CC[C@]2(C(=O)O)CC[C@]3(C)[C@H](CC[C@@H]4[C@@]5(C)CC[C@H](O)C(C)(C)[C@@H]5CC[C@]43C)[C@@H]12` [Compound 1, betulinic acid], the IC50 is 15.1 µM in data set [11]; 24.9 ± 1.2 µM in data set [1]; 13.9 ± 1.06 µM in [2]; 8.8 ± 0.35 µM in [3]; < 10 µM in data set [3] (Homo sapiens, 72 h); 31.5 ± 0.49 µM in data set [4] (setting [23]). The IC50 in data set [5] was 7.65 ± 1.46 µM; in data set [5] (Homo sapiens, ADR5000, 72 h), < 10 µM; in data set [6], 38.8 ± 0.94 µM; in data set [18] it was 29.4 µM; in data set [7], 24.9 ± 0.33 µM; in data set [22] (72 h) it was < 50 µM. The IC50 in [8] is 44.2 ± 3.15 µM; in [9] it was > 93.9 µM; in [10] it was 17.1 ± 0.7 µM. The Degree of resistance was 0.64 in data set [1], 0.56 in data set [2], 0.87 in data set [5] and 0.54 in data set [10]. The “Q9-LR early apoptotic cells annexin (+)/PI (-)” value in data set [12] is 51.0%. Moreover, the “Q9-UL annexin V (-)/PI (+) cells (necrosis)” value in data set [12] was 5.1%. The “Increase in the activity of caspases 3/7” value in [13] worked out at 3.19 fold. Besides, the “Increase in the activity of caspase 9” value in [14] came out at 2.37 fold. Besides, the “Sensitivity of resistant cells compared to sensitive congener” value in [15] is given as “hypersensitivity”. Besides, the “ROS production, percentage” value in [16] is reported as 53.30%. For the same compound, in [17], the “Increase in the activity of caspase 8” value is 2.91 fold. In data set [19], the “Cytotoxicity towards normal cells” value is given as “low cytotoxicity”. Besides, the Q1 intact cells is 83.0% in data set [20] (1/2 × IC50), 88.0% in data set [20] (1/4 × IC50), 42.5% in data set [20] (2 × IC50) and 51.8% in [20] (IC50). Besides, the “Q2 loss of MMP” value in [20] (1/2 × IC50) was 1.28%; in [20] (1/4 × IC50), 1.43%; in data set [20] (2 × IC50) it was 57.5%; in data set [20] (IC50) it was 48.2%. Also, the “Q3 ruptured cell membrane” value stood at 0.291% in data set [20] (1/2 × IC50), 0.057% in data set [20] (1/4 × IC50), 0.00% in [20] (2 × IC50) and 0.00% in data set [20] (IC50). Further, the “Q4 ruptured cell membrane” value was determined as 15.4% in [20] (1/2 × IC50), 10.6% in [20] (1/4 × IC50), 0.00% in [20] (2 × IC50) and 0.00% in data set [20] (IC50). The results for the “Cell percentage Sub-G0/G1” value in data set [21] (1/4 × IC50) and in data set [21] (2 × IC50) were 15.30% and 48.40%, respectively. Further, the “Degree of resistance (D.R.), all resistant cell lines” value in [22] (all resistant cell lines compared to their sensitive counterparts) is “below 1”. Further, in data set [9], the Selectivity index is given as > 2.13.

For `CCCCCCCCCCCCCCCCCCCCCCCCCC(=O)OCC(O)CO` (stereo not shown) [Compound 2, glyceryl-1-hexacosanoate], the IC50 in data set [1], in [2], in data set [3] (Homo sapiens), in data set [4] (setting [23]), in data set [5] (Homo sapiens) and in data set [6] was > 100 µM each time. For the same compound, the IC50 in data set [7], in data set [22] (72 h), in data set [8], in [9] and in data set [10] was > 100 µM each time.

With `COc1cccc2c1C(=O)c1c(O)c3c(c(O)c1C2=O)C[C@@](O)(C(=O)CO)C[C@@H]3O[C@H]1C[C@H](N)[C@H](O)[C@H](C)O1` [Doxorubicin, doxorubicin, reference compound], the Degree of resistance in data set [1] is 6.14; in data set [2] it was 3.79; in data set [5] it was 6,683.00; in [10] it was 3.73. Besides, the IC50 in [1] was 0.79 ± 0.08 µM; in data set [2], 0.98 ± 0.07 µM; in [3] (Homo sapiens), 0.02 µM; in data set [6], 0.13 ± 0.01 µM; in [7], 0.26 ± 0.03 µM; in data set [8], 4.56 ± 0.48 µM. Further, the concentration for half-maximal inhibition (IC50) was 52.9 ± 4.09 µM in data set [9] and 1.78 ± 0.08 µM in data set [10]. Further, the “Cell cycle arrest (phase)” value in data set [21] is “between S and G2/M”.

For `CC(C)[C@@H]1NC(=O)[C@H](C)OC(=O)[C@@H](C(C)C)NC(=O)[C@@H](C(C)C)OC(=O)[C@H](C(C)C)NC(=O)[C@H](C)OC(=O)[C@@H](C(C)C)NC(=O)[C@@H](C(C)C)OC(=O)[C@H](C(C)C)NC(=O)[C@H](C)OC(=O)[C@@H](C(C)C)NC(=O)[C@@H](C(C)C)OC1=O` [Valinomycin, valinomycin, reference compound], in data set [20] (10 μM), the Q1 intact cells is 54.1%, the “Q2 loss of MMP” value stood at 45.9%, the “Q3 ruptured cell membrane” value turned out to be 0.00% and the “Q4 ruptured cell membrane” value is reported as 0.00%.

Consider `O=c1cc(-c2ccc(O)cc2)oc2cc(O)ccc12` [Compound 3, 7-hydroxy-2-(4-hydroxyphenyl)-4H-chromen-4-one], for which the Degree of resistance was 1.06 in [1], 0.88 in data set [2], 3.98 in [5] and < 0.66 in data set [10]. In addition, the IC50 was 80 ± 1.61 µM in [1]; 53.8 ± 6.1 µM in data set [2]; 31.2 ± 0.98 µM in [3] (Homo sapiens); > 100 µM in data set [4] (Homo sapiens, HCT-116, 72 h incubation); 124 ± 20.2 µM in data set [5] (Homo sapiens); 75.5 ± 5.16 µM in [6]. In addition, the IC50 is 61.3 ± 5.87 µM in data set [7]; > 10 µM in data set [22]; 48.6 ± 7.09 µM in data set [8]; > 100 µM in data set [9]; 66.3 ± 5.67 µM in data set [10].

Values taken from publication PMC6644236, “Cytotoxicity of Crude Extract and Isolated Constituents of the Dichrostachys cinerea Bark towards Multifactorial Drug-Resistant Cancer Cells” (Evidence-based Complementary and Alternative Medicine : eCAM, 2019).
